Earlier results, collected in patent US20040063806A1, “Antimicrobial polyalphaolefin composition” (priority 2000, published 2004).
Like-named read-outs stand apart in the source and are kept apart here.

Tests used:
Actinomyces bovis = conditions: origin A, medium NA
[1] = tested on: Bacillus cereus var. mycoides; conditions: origin A, medium NA
Bacillus megatherium = conditions: origin A, medium NA
Clostridium botulinum = Clostridium botulinum NCTC 3805, medium EA
Clostridium difficile = Clostridium difficile ATCC 9684, medium BHI-A
Clostridium perfringens = Clostridium perfringens NCTC 3110, medium EA
Corynebacterium acnes = conditions: Corynebacterium acnes* ATCC 6919, medium BHI-A
[2] = tested on: Corynebacterium minutissimum; conditions: Corynebacterium minutissimum ATCC 23348, medium BHI-A
[3] = tested on: Lactobacillus delbrueckii; conditions: Lactobacillus delbrueckii ATCC 7830, medium MACA
Lactobacillus rhamnosus = Lactobacillus rhamnosus NCTC 7469, medium MACA
Sarcina urea = Sarcina urea ATCC 6473, medium BHI-A
[4] = tested on: Staphylococcus epidermidis; conditions: Staphylococcus epidermidis ATCC 12228, medium M-H
[5] = tested on: Staphylococcus saprophyticus; conditions: Staphylococcus saprophyticus NCTC 7292, medium NA
Citrobacter freundii = conditions: origin A, medium NA
Haemophilius influenca = Haemophilius influenca ATCC 33391, medium B-A
Pasteurella septica = Pasteurella septica NCTC 948, medium NA
Microsporum canis = Microsporum canis ATCC 10214, medium SMA
Trichophyton rubrum = conditions: origin A, medium SMA

Compound: Oc1cc(Cl)ccc1Oc1ccc(Cl)cc1Cl [IRGAGUARD B 1000, 2,4,4′-trichloro-2′-hydroxydiphenyl ether]
- Microbiostatic effect (Actinomyces bovis): 1.0 ppm
- Microbiostatic effect [1]: 3.0 ppm
- Microbiostatic effect (Bacillus megatherium): 3.0 ppm
- Microbiostatic effect (Clostridium botulinum): 3.0 ppm
- Microbiostatic effect (Clostridium difficile): 5.0 ppm
- Microbiostatic effect (Clostridium perfringens): 10.0 ppm
- Microbiostatic effect (Corynebacterium acnes): 3.0 ppm
- Microbiostatic effect [2]: 3.0 ppm
- Microbiostatic effect [3]: 33.0 ppm
- Microbiostatic effect (Lactobacillus rhamnosus): 33.0 ppm
- Microbiostatic effect (Sarcina urea): 0.1 ppm
- Microbiostatic effect [4]: <0.125 ppm
- Microbiostatic effect [5]: 0.1 ppm
- Microbiostatic effect (Citrobacter freundii): 3.0 ppm
- Microbiostatic effect (Haemophilius influenca): 2.0 ppm
- Microbiostatic effect (Klebsiella pneumoniae; Klebsiella pneumoniae ATCC 4352, medium NA): 0.3 ppm
- Microbiostatic effect (Klebsiella pneumoniae; Klebsiella pneumoniae ATCC 10031, medium M-H): 0.125 ppm
- Microbiostatic effect (Pasteurella septica): 0.1 ppm
- Microbiostatic effect (Pseudomonas aeruginosa; Pseudomonad aeruginosa ATCC 12055, medium NA): >1000 ppm
- Microbiostatic effect (Pseudomonas aeruginosa; Pseudomonas aeruginosa NCTC 8060, medium NA): >1000 ppm
- Microbiostatic effect (Microsporum canis): 3 ppm
- Microbiostatic effect (Trichophyton rubrum): 10 ppm
